Biological target: T1, human Cot/Tpl2 kinase (Homo sapiens, UniProt P41279)
T1 construct: human Cot/Tpl2 kinase construct encoding residues 30-398; 6His (N); made in house; host or cells: Sf9 insect cells (baculovirus system, BD Biosciences)
Experiment: Tpl2/Cot kinase assay, GST-MEK1 phosphorylation detected by ELISA (DELFIA Eu)
Assay type: biochemical
Settings: Table 1; 0.4 nM Tpl2, 35 nM GST-MEK1, 50 uM ATP, 1 h at 30° C.
Experimental: Sf9 cells expressing the kinase were lysed in 50 mM NaPhosphate pH=8; 300 mM NaCl; 5 mM imidazole; 0.1 mM EGTA; 25 mM beta-glycerophosphate; 1% TX-100, 1% glycerol; 6 mM beta-mercaptoethanol and protease inhibitors. The lysate was clarified by centrifugation and was loaded onto a Ni-Sepharose column. The column was washed with 50 mM NaPhosphate pH=8; 300 mM NaCl; 15 mM imidazole; 1% glycerol; and 6 mM beta-mercaptoethanol. His-Tpl2 was eluted with 50 mM NaPhosphate pH=8; 300 mM NaCl; 250 mM imidazole; 1% glycerol; and 6 mM beta-mercaptoethanol. The eluted protein was further purified by size exclusion chromatography. Fractions corresponding to monomeric Tpl2 were then used in the assay.
Tpl2/Cot activity was directly assayed using GST-MEK1 as a substrate. GST-MEK1 phosphorylation on serine residues 217 and 221 was detected by ELISA. 0.4 nM Tpl2 was incubated with 35 nM GST-MEK1 in a kinase reaction buffer containing 20 mM MOPS pH=7.2; 50 uM ATP; 20 mM MgCl2; 1 mM DTT; 25 mM β-glycerophosphate; 5 mM EGTA; and 1 mM sodium orthovanadate for 1 h at 30° C. The compounds of the inventions solubilized in 100% DMSO were pre-diluted in assay buffer so that the final concentration of DMSO in the reaction was 1%. The kinase reaction was carried out in 100 ul volume on 96 well plates. The kinase reaction was then stopped with the addition of 100 mM EDTA. […] After a 1 hour incubation at room temperature, the detection plate was washed 4 times with TBST (TBS+0.05% Tween 20) and then incubated for another hour at room temperature with anti phospho-MEK1 antibody (Cell Signaling) 1:1000 in 10 mM MOPS 7.5; 150 mM NaCl; 0.05% Tween 20; 0.1% Gelatin; 0.02% NaN3; and 1% BSA. The detection plate was washed again and incubated for 30 min with DELFIA Europium (Eu) labeled goat anti-rabbit IgG (Perkin-Elmer), 1:4000 in the same buffer used for the primary incubation. After a final wash, Eu detection solution was added to each well and the Eu signal was measured in a Wallac Victor^2 Multilabel Counter. IC50 calculations were preformed using the XLfit software package (IDBS, Guildford, UK).

T1 sequence (P41279 30-398): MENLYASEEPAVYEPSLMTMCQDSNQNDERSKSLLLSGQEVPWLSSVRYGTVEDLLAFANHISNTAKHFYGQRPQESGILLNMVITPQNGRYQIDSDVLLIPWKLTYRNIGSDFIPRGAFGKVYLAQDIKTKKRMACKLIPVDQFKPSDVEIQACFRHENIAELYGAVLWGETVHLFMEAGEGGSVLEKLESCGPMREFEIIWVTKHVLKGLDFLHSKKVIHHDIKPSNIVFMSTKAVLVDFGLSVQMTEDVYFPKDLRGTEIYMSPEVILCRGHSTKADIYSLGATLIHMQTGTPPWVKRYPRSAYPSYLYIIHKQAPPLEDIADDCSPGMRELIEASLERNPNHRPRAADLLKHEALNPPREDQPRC

Q: With `CC(C)c1cccc(Nc2c(C#N)cnc3cnc(OCCN4CCOCC4)cc23)c1` [Example 36, 4-[(3-isopropylphenyl)amino]-6-(2-morpholin-4-ylethoxy)-1,7-naphthyridine-3-carbonitrile] as the compound, how does the IC50 read?
A: > 40 µM

Q: How did the IC50 turn out when `CC(C)c1cccc(Nc2c(C#N)cnc3cnc(NCCN4CCOCC4)cc23)c1` [Example 37, 4-[(3-isopropylphenyl)amino]-6-[(2-morpholin-4-ylethyl)amino]-1,7-naphthyridine-3-carbonitrile] was run?
A: > 40 µM

Q: `COc1ccc(CNc2cc3c(Nc4cccc(C(C)C)c4)c(C#N)cnc3cn2)cc1` [Example 38, 4-[(3-isopropylphenyl)amino]-6-[(4-methoxybenzyl)amino]-1,7-naphthyridine-3-carbonitrile] was tested. Which IC50 did it give?
A: > 40 µM

Q: With `N#Cc1cnc2cnc(OCCN3CCOCC3)cc2c1Nc1ccc(F)c(Cl)c1` [Example 39, 4-[(3-chloro-4-fluorophenyl)amino]-6-(2-morpholin-4-ylethoxy)-1,7-naphthyridine-3-carbonitrile] as the compound, how does the IC50 read?
A: > 40 µM

Q: For `N#Cc1cnc2cnc(NCCN3CCOCC3)cc2c1Nc1ccc(Oc2ccccc2)cc1` [Example 41, 6-[(2-morpholin-4-ylethyl)amino]-4-[(4-phenoxyphenyl)amino]-1,7-naphthyridine-3-carbonitrile], which IC50 is on record?
A: 0.3 µM

Q: For `CC(C)c1ccc(Nc2c(C#N)cnc3cnc(NCCN4CCOCC4)cc23)cc1` [Example 43, 4-[(4-isopropylphenyl)amino]-6-[(2-morpholin-4-ylethyl)amino]-1,7-naphthyridine-3-carbonitrile], which IC50 is on record?
A: > 40 µM

Q: With `N#Cc1cnc2cnc(NCCN3CCOCC3)cc2c1Nc1ccc2[nH]ccc2c1` [Example 44, 4-(1H-indol-5-ylamino)-6-[(2-morpholin-4-ylethyl)amino]-1,7-naphthyridine-3-carbonitrile] as the compound, how does the IC50 read?
A: > 40 µM

Q: `CN1CCN(CCCNc2cc3c(Nc4ccc(F)c(Cl)c4)c(C#N)cnc3cn2)CC1` [Example 45, 4-[(3-chloro-4-fluorophenyl)amino]-6-{[3-(4-methylpiperazin-1-yl)propyl]amino}-1,7-naphthyridine-3-carbonitrile] was tested. Which IC50 did it give?
A: 20 µM

Q: `N#Cc1cnc2cnc(NCc3ccccc3)cc2c1Nc1ccc(F)c(Cl)c1` [Example 47, 6-(benzylamino)-4-[(3-chloro-4-fluorophenyl)amino]-1,7-naphthyridine-3-carbonitrile] was tested. Which IC50 did it give?
A: 0.1 µM

Q: How did the IC50 turn out when `CN(C)CCCNc1cc2c(Nc3ccc(F)c(Cl)c3)c(C#N)cnc2cn1` [Example 48, 4-[(3-chloro-4-fluorophenyl)amino]-6-{[3-(dimethylamino)propyl]amino}-1,7-naphthyridine-3-carbonitrile] was run?
A: 5 µM

Q: With `N#Cc1cnc2cnc(NCCCN3CCOCC3)cc2c1Nc1ccc(F)c(Cl)c1` [Example 49, 4-[(3-chloro-4-fluorophenyl)amino]-6-[(3-morpholin-4-ylpropyl)amino]-1,7-naphthyridine-3-carbonitrile] as the compound, how does the IC50 read?
A: 3 µM

Q: How did the IC50 turn out when `CC[C@@H](Nc1cc2c(Nc3ccc(F)c(Cl)c3)c(C#N)cnc2cn1)c1ccccc1` [Example 51, 4-[(3-chloro-4-fluorophenyl)amino]-6-{[(1R)-1-phenylpropyl]amino}-1,7-naphthyridine-3-carbonitrile] was run?
A: 0.41 µM

Q: With `C[C@@H](Nc1cc2c(Nc3ccc(F)c(Cl)c3)c(C#N)cnc2cn1)[C@@H](O)c1ccccc1` [Example 53, 4-[(3-chloro-4-fluorophenyl)amino]-6-{[(1R, 2S)-2-hydroxy-1-methyl-2-phenylethyl]amino}-1,7-naphthyridine-3-carbonitrile] as the compound, how does the IC50 read?
A: 7 µM

Q: With `C[C@H](Nc1cc2c(Nc3ccc(F)c(Cl)c3)c(C#N)cnc2cn1)[C@H](O)c1ccccc1` [Example 54, 4-[(3-chloro-4-fluorophenyl)amino]-6-{[(1S, 2R)-2-hydroxy-1-methyl-2-phenylethyl]amino}-1,7-naphthyridine-3-carbonitrile] as the compound, how does the IC50 read?
A: 1.3 µM

Q: For `C[C@@H](O)CNc1cc2c(Nc3ccc(F)c(Cl)c3)c(C#N)cnc2cn1` [Example 55, 4-[(3-chloro-4-fluorophenyl)amino]-6-{[(2R)-2-hydroxypropyl]amino}-1,7-naphthyridine-3-carbonitrile], which IC50 is on record?
A: 1.5 µM

Q: Which IC50 does the source give for `C[C@H](O)CNc1cc2c(Nc3ccc(F)c(Cl)c3)c(C#N)cnc2cn1` [Example 56, 4-[(3-chloro-4-fluorophenyl)amino]-6-{[(2S)-2-hydroxypropyl]amino}-1,7-naphthyridine-3-carbonitrile] here?
A: 3.6 µM

Q: `C[C@H](Nc1cc2c(Nc3ccc(F)c(Cl)c3)c(C#N)cnc2cn1)c1ccccc1` [Example 57, 4-[(3-chloro-4-fluorophenyl)amino]-6-{[(1S)-1-phenylethyl]amino}-1,7-naphthyridine-3-carbonitrile] was tested. Which IC50 did it give?
A: 36 µM

Q: How did the IC50 turn out when `N#Cc1cnc2cnc(N[C@H](CN3CCOCC3)c3ccccc3)cc2c1Nc1ccc(F)c(Cl)c1` [Example 58, 4-[(3-chloro-4-fluorophenyl)amino]-6-{[(1S)-2-morpholin-4-yl-1-phenylethyl]amino}-1,7-naphthyridine-3-carbonitrile] was run?
A: 3.7 µM

Q: `C[C@@H](Nc1cc2c(Nc3ccc(F)c(Cl)c3)c(C#N)cnc2cn1)c1ccccc1` [Example 59, 4-[(3-chloro-4-fluorophenyl)amino]-6-{[(1R)-1-phenylethyl]amino}-1,7-naphthyridine-3-carbonitrile] was tested. Which IC50 did it give?
A: 0.012 µM

Q: How did the IC50 turn out when `N#Cc1cnc2cnc(NC(CN3CCOCC3)c3ccccc3)cc2c1Nc1ccc(F)c(Cl)c1` (centres unmarked) [Example 60, 4-[(3-chloro-4-fluorophenyl)amino]-6-[(2-morpholin-4-yl-1-phenylethyl)amino]-1,7-naphthyridine-3-carbonitrile] was run?
A: 2.4 µM

Q: For `N#Cc1cnc2cnc(NCc3c(N)cccc3F)cc2c1Nc1ccc(F)c(Cl)c1` [Example 61, 6-[(2-amino-6-fluorobenzyl)amino]-4-[(3-chloro-4-fluorophenyl)amino]-1,7-naphthyridine-3-carbonitrile], which IC50 is on record?
A: 10.5 µM

Q: For `N#Cc1cnc2cnc(NCc3cccnc3)cc2c1Nc1ccc(Cl)c(Cl)c1` [Example 63, 4-[(3,4-dichlorophenyl)amino]-6-[(pyridin-3-ylmethyl)amino]-1,7-naphthyridine-3-carbonitrile], which IC50 is on record?
A: > 40 µM

Q: `Cc1ccc(Nc2c(C#N)cnc3cnc(NCCN4CCOCC4)cc23)cc1Br` [Example 64, 4-[(3-bromo-4-methylphenyl)amino]-6-[(2-morpholin-4-ylethyl)amino]-1,7-naphthyridine-3-carbonitrile] was tested. Which IC50 did it give?
A: > 40 µM

Q: For `Cc1ccc(Nc2c(C#N)cnc3cnc(N[C@H](C)c4ccccc4)cc23)cc1Br` [Example 65], which IC50 is on record?
A: 6.2 µM

Q: How did the IC50 turn out when `Cc1ccc(Nc2c(C#N)cnc3cnc(NCc4cccnc4)cc23)cc1Br` [Example 66, 4-[(3-bromo-4-methylphenyl)amino]-6-[(pyridine-3-ylmethyl)amino]-1,7-naphthyridine-3-carbonitrile] was run?
A: > 40 µM

Q: How did the IC50 turn out when `N#Cc1cnc2cnc(NCCN3CCOCC3)cc2c1Nc1cc(Cl)cc(Cl)c1` [Example 67, 4-[(3,5-dichlorophenyl)amino]-6-[(2-morpholin-4-ylethyl)amino]-1,7-naphthyridine-3-carbonitrile] was run?
A: 4.2 µM

Q: With `C[C@@H](Nc1cc2c(Nc3cc(Cl)cc(Cl)c3)c(C#N)cnc2cn1)c1ccccc1` [Example 68] as the compound, how does the IC50 read?
A: 0.94 µM

Q: How did the IC50 turn out when `N#Cc1cnc2cnc(NCc3cccnc3)cc2c1Nc1cc(Cl)cc(Cl)c1` [Example 69, 4-[(3,5-dichlorophenyl)amino]-6-[(pyridin-3-ylmethyl)amino]-1,7-naphthyridine-3-carbonitrile] was run?
A: 4.1 µM

Q: `N#Cc1cnc2cnc(N[C@@H]3CCCc4ccccc43)cc2c1Nc1ccc(F)c(Cl)c1` [Example 70] was tested. Which IC50 did it give?
A: 1.5 µM

Q: Which IC50 does the source give for `N#Cc1cnc2cnc(N[C@H]3CCCc4ccccc43)cc2c1Nc1ccc(F)c(Cl)c1` [Example 71] here?
A: 3.9 µM

Q: `N#Cc1cnc2cnc(N[C@H]3CCc4ccccc43)cc2c1Nc1ccc(F)c(Cl)c1` [Example 72] was tested. Which IC50 did it give?
A: 1.5 µM

Q: `N#Cc1cnc2cnc(N[C@@H]3CCc4ccccc43)cc2c1Nc1ccc(F)c(Cl)c1` [Example 73] was tested. Which IC50 did it give?
A: 0.43 µM

Q: `CCN1CCC[C@H]1CNc1cc2c(Nc3ccc(F)c(Cl)c3)c(C#N)cnc2cn1` [Example 74] was tested. Which IC50 did it give?
A: 0.18 µM

Q: How did the IC50 turn out when `CCN1CCC[C@@H]1CNc1cc2c(Nc3ccc(F)c(Cl)c3)c(C#N)cnc2cn1` [Example 75] was run?
A: 7 µM

Q: Which IC50 does the source give for `N#Cc1cnc2cnc(NCCN3CCOCC3)cc2c1Nc1cccc(I)c1` [Example 78, 4-(3-iodophenylamino)-6-(2-morpholinoethylamino)-1,7-naphthyridine-3-carbonitrile] here?
A: 7.1 µM
